Experimental data published in ChEMBL document CHEMBL6092180 (Eur J Med Chem, 2024).
In brackets after ≈: the same amount, converted by molar mass.

Columns and labels:
Type in all cases: functional
Nakaseomyces glabratus = assay: Antifungal activity against Candida glabrata assessed as inhibition of fungal growth by CLSI M27-A3 guidelines based method
Cryptococcus neoformans = assay: Antifungal activity against Cryptococcus neoformans CGMCC 2.3161 assessed as inhibition of fungal growth by CLSI M27-A3 guidelines based method
Candida parapsilosis = assay: Antifungal activity against Candida parapsilosis GIM 2.190 assessed as inhibition of fungal growth by CLSI M27-A3 guidelines based method; conditions: Lodderomyces parapsilosis
Candida albicans [1] = assay: Antifungal activity against Candida albicans SC5314 assessed as inhibition of fungal growth by CLSI M27-A3 guidelines based method
Candida tropicalis = assay: Antifungal activity against Candida tropicalis GIM 2.183 assessed as inhibition of fungal growth by CLSI M27-A3 guidelines based method
Pichia kudriavzevii = assay: Antifungal activity against Candida krusei GIM 2.1 assessed as inhibition of fungal growth by CLSI M27-A3 guidelines based method
Candida albicans [2] = assay: Antifungal activity against Candida albicans GIM 2.194 assessed as inhibition of fungal growth by CLSI M27-A3 guidelines based method

Structure (SMILES) | MIC80 (Nakaseomyces glabratus) | MIC80 (Cryptococcus neoformans) | MIC80 (Candida parapsilosis) | MIC80 (Candida albicans [1]) | MIC80 (Candida tropicalis) | MIC80 (Pichia kudriavzevii) | MIC80 (Candida albicans [2])
CN(Cc1ccc(C#Cc2ccccc2Cl)cc1)CC(O)(Cn1cncn1)c1ccc(F)cc1F (stereo unspecified) | 0.8 µg/mL (≈ 1.62 µM) | 0.013 µg/mL (≈ 0.0264 µM) | 0.006 µg/mL (≈ 0.0122 µM) | 0.013 µg/mL (≈ 0.0264 µM) | 0.013 µg/mL (≈ 0.0264 µM) | 0.03 µg/mL (≈ 0.0609 µM) | 0.006 µg/mL (≈ 0.0122 µM)
CN(Cc1ccc(C#Cc2ccccn2)cc1)CC(O)(Cn1cncn1)c1ccc(F)cc1F (stereo unspecified) | 1.6 µg/mL (≈ 3.48 µM) | 0.2 µg/mL (≈ 0.435 µM) | 0.05 µg/mL (≈ 0.109 µM) | 0.013 µg/mL (≈ 0.0283 µM) | 0.013 µg/mL (≈ 0.0283 µM) | 0.4 µg/mL (≈ 0.871 µM) | 0.25 µg/mL (≈ 0.544 µM)
CN(Cc1ccc(C#Cc2cc(F)c(F)cc2F)cc1)CC(O)(Cn1cncn1)c1ccc(F)cc1F (stereo unspecified) | 0.01 µg/mL (≈ 0.0195 µM) | 0.013 µg/mL (≈ 0.0254 µM) | 0.006 µg/mL (≈ 0.0117 µM) | 0.006 µg/mL (≈ 0.0117 µM) | 0.006 µg/mL (≈ 0.0117 µM) | 0.03 µg/mL (≈ 0.0585 µM) | 0.006 µg/mL (≈ 0.0117 µM)
CN(Cc1ccc(C#Cc2ccc(O)cc2)cc1)CC(O)(Cn1cncn1)c1ccc(F)cc1F (stereo unspecified) | 3.2 µg/mL (≈ 6.74 µM) | 0.2 µg/mL (≈ 0.421 µM) | 0.025 µg/mL (≈ 0.0527 µM) | 0.013 µg/mL (≈ 0.0274 µM) | 0.025 µg/mL (≈ 0.0527 µM) | 3.2 µg/mL (≈ 6.74 µM) | 0.025 µg/mL (≈ 0.0527 µM)
CN(Cc1ccc(C#Cc2cccc(I)c2)cc1)CC(O)(Cn1cncn1)c1ccc(F)cc1F (stereo unspecified) | 3.2 µg/mL (≈ 5.48 µM) | 0.025 µg/mL (≈ 0.0428 µM) | 0.025 µg/mL (≈ 0.0428 µM) | 0.05 µg/mL (≈ 0.0856 µM) | 0.025 µg/mL (≈ 0.0428 µM) | 3.2 µg/mL (≈ 5.48 µM) | 0.05 µg/mL (≈ 0.0856 µM)
CN(Cc1ccc(C#Cc2ccc(Cl)c(F)c2)cc1)CC(O)(Cn1cncn1)c1ccc(F)cc1F (stereo unspecified) | 0.01 µg/mL (≈ 0.0196 µM) | 0.013 µg/mL (≈ 0.0254 µM) | 0.006 µg/mL (≈ 0.0117 µM) | 0.006 µg/mL (≈ 0.0117 µM) | 0.006 µg/mL (≈ 0.0117 µM) | 0.03 µg/mL (≈ 0.0587 µM) | 0.006 µg/mL (≈ 0.0117 µM)
CN(Cc1ccc(C#Cc2cncnc2)cc1)CC(O)(Cn1cncn1)c1ccc(F)cc1F (stereo unspecified) | 3.2 µg/mL (≈ 6.95 µM) | 0.4 µg/mL (≈ 0.869 µM) | 0.025 µg/mL (≈ 0.0543 µM) | 0.025 µg/mL (≈ 0.0543 µM) | 0.025 µg/mL (≈ 0.0543 µM) | 0.8 µg/mL (≈ 1.74 µM) | 0.05 µg/mL (≈ 0.109 µM)
CN(Cc1ccc(C#Cc2ccc(-c3ccccc3)cc2)cc1)CC(O)(Cn1cncn1)c1ccc(F)cc1F (stereo unspecified) | 0.4 µg/mL (≈ 0.748 µM) | 0.05 µg/mL (≈ 0.0935 µM) | 0.05 µg/mL (≈ 0.0935 µM) | 0.05 µg/mL (≈ 0.0935 µM) | 0.05 µg/mL (≈ 0.0935 µM) | 0.2 µg/mL (≈ 0.374 µM) | 0.013 µg/mL (≈ 0.0243 µM)
CN(Cc1ccc(C#Cc2cccc(Cl)c2)cc1)CC(O)(Cn1cncn1)c1ccc(F)cc1F (stereo unspecified) | 0.2 µg/mL (≈ 0.406 µM) | 0.013 µg/mL (≈ 0.0264 µM) | 0.006 µg/mL (≈ 0.0122 µM) | 0.013 µg/mL (≈ 0.0264 µM) | 0.013 µg/mL (≈ 0.0264 µM) | 0.01 µg/mL (≈ 0.0203 µM) | 0.006 µg/mL (≈ 0.0122 µM)
CN(Cc1ccc(C#Cc2ccc([N+](=O)[O-])cc2F)cc1)CC(O)(Cn1cncn1)c1ccc(F)cc1F (stereo unspecified) | 0.03 µg/mL (≈ 0.0575 µM) | 0.025 µg/mL (≈ 0.0479 µM) | 0.006 µg/mL (≈ 0.0115 µM) | 0.006 µg/mL (≈ 0.0115 µM) | 0.006 µg/mL (≈ 0.0115 µM) | 0.05 µg/mL (≈ 0.0959 µM) | 0.006 µg/mL (≈ 0.0115 µM)
CN(Cc1ccc(C#Cc2ccncc2)cc1)CC(O)(Cn1cncn1)c1ccc(F)cc1F (stereo unspecified) | 0.4 µg/mL (≈ 0.871 µM) | 0.2 µg/mL (≈ 0.435 µM) | 0.013 µg/mL (≈ 0.0283 µM) | 0.013 µg/mL (≈ 0.0283 µM) | 0.013 µg/mL (≈ 0.0283 µM) | 0.2 µg/mL (≈ 0.435 µM) | 0.006 µg/mL (≈ 0.0131 µM)
CN(Cc1ccc(C#Cc2cccc(Br)c2)cc1)CC(O)(Cn1cncn1)c1ccc(F)cc1F (stereo unspecified) | 0.8 µg/mL (≈ 1.49 µM) | 0.013 µg/mL (≈ 0.0242 µM) | 0.006 µg/mL (≈ 0.0112 µM) | 0.025 µg/mL (≈ 0.0465 µM) | 0.013 µg/mL (≈ 0.0242 µM) | 0.2 µg/mL (≈ 0.372 µM) | 0.006 µg/mL (≈ 0.0112 µM)
CCOC(=O)c1ccc(C#Cc2ccc(CN(C)CC(O)(Cn3cncn3)c3ccc(F)cc3F)cc2)cc1 (stereo unspecified) | 0.1 µg/mL (≈ 0.188 µM) | 0.025 µg/mL (≈ 0.0471 µM) | 0.006 µg/mL (≈ 0.0113 µM) | 0.013 µg/mL (≈ 0.0245 µM) | 0.013 µg/mL (≈ 0.0245 µM) | 0.2 µg/mL (≈ 0.377 µM) | 0.013 µg/mL (≈ 0.0245 µM)
Cc1ccc(C#Cc2ccc(CN(C)CC(O)(Cn3cncn3)c3ccc(F)cc3F)cc2)cc1 (stereo unspecified) | 0.4 µg/mL (≈ 0.846 µM) | 0.013 µg/mL (≈ 0.0275 µM) | 0.013 µg/mL (≈ 0.0275 µM) | 0.013 µg/mL (≈ 0.0275 µM) | 0.013 µg/mL (≈ 0.0275 µM) | 0.2 µg/mL (≈ 0.423 µM) | 0.013 µg/mL (≈ 0.0275 µM)
CN(Cc1ccc(C#Cc2ccc([N+](=O)[O-])c(F)c2)cc1)CC(O)(Cn1cncn1)c1ccc(F)cc1F (stereo unspecified) | 0.01 µg/mL (≈ 0.0192 µM) | 0.025 µg/mL (≈ 0.0479 µM) | 0.006 µg/mL (≈ 0.0115 µM) | 0.006 µg/mL (≈ 0.0115 µM) | 0.006 µg/mL (≈ 0.0115 µM) | 0.01 µg/mL (≈ 0.0192 µM) | 0.006 µg/mL (≈ 0.0115 µM)
CN(Cc1ccc(C#Cc2cc(F)c(Cl)cc2F)cc1)CC(O)(Cn1cncn1)c1ccc(F)cc1F (stereo unspecified) | 0.01 µg/mL (≈ 0.0189 µM) | 0.025 µg/mL (≈ 0.0473 µM) | 0.006 µg/mL (≈ 0.0113 µM) | 0.006 µg/mL (≈ 0.0113 µM) | 0.006 µg/mL (≈ 0.0113 µM) | 0.01 µg/mL (≈ 0.0189 µM) | 0.006 µg/mL (≈ 0.0113 µM)
CN(Cc1ccc(C#Cc2ccccc2F)cc1)CC(O)(Cn1cncn1)c1ccc(F)cc1F (stereo unspecified) | 0.05 µg/mL (≈ 0.105 µM) | 0.006 µg/mL (≈ 0.0126 µM) | 0.006 µg/mL (≈ 0.0126 µM) | 0.006 µg/mL (≈ 0.0126 µM) | 0.006 µg/mL (≈ 0.0126 µM) | 0.01 µg/mL (≈ 0.021 µM) | 0.013 µg/mL (≈ 0.0273 µM)
C[C@@H](N(C)Cc1ccc(C#Cc2ccc(C(C)(C)C)cc2)cc1)[C@](O)(Cn1cncn1)c1ccc(F)cc1F | 3.2 µg/mL (≈ 6.05 µM) | 3.2 µg/mL (≈ 6.05 µM) | 1.6 µg/mL (≈ 3.03 µM) | 1.6 µg/mL (≈ 3.03 µM) | 1.6 µg/mL (≈ 3.03 µM) | 3.2 µg/mL (≈ 6.05 µM) | 3.2 µg/mL (≈ 6.05 µM)
